Where “and” joins values, the source holds several entries; their conditions need not be identical. Identical values can stand only once.
Test: xn = mol fraction of the nth substance listed

OCCNCCO + O
Conditions | viscosity
293.15 K, 101 kPa, x1 = 0.15 | 12.5 mPa·s
293.15 K, 101 kPa, x1 = 0.34 | 91.2 mPa·s
293.15 K, 101.3 kPa, x1 = 0.02 | 1.499 mPa·s
293.15 K, 101.3 kPa, x1 = 0.04 | 2.204 mPa·s
293.15 K, 101.3 kPa, x1 = 0.1 | 6.515 mPa·s and 12.37 mPa·s
293.15 K, 101.3 kPa, x1 = 0.2 | 25.81 mPa·s
293.15 K, 101.3 kPa, x1 = 0.3 | 53.68 mPa·s
293.15 K, 101.3 kPa, x1 = 0.4 | 143.3 mPa·s
293.15 K, 101.3 kPa, x1 = 0.6 | 353.7 mPa·s
293.15 K, 101.33 kPa, x1 = 0.019 | 1.427 mPa·s
293.15 K, 101.33 kPa, x1 = 0.041 | 2.171 mPa·s
298.15 K, 101 kPa, x2 = 0.9 | 5.29 mPa·s
298.15 K, 101 kPa, x2 = 0.9316 | 3.1 mPa·s
298.15 K, 101.3 kPa, x1 = 0.02 | 1.259 mPa·s
298.15 K, 101.3 kPa, x1 = 0.04 | 1.875 mPa·s
298.15 K, 101.3 kPa, x1 = 0.07 | 3.04 mPa·s
298.15 K, 101.3 kPa, x1 = 0.1 | 5.221 mPa·s and 9.782 mPa·s
298.15 K, 101.3 kPa, x1 = 0.2 | 19.24 mPa·s
298.15 K, 101.3 kPa, x1 = 0.3 | 39.15 mPa·s
298.15 K, 101.3 kPa, x1 = 0.4 | 97.87 mPa·s
298.15 K, 101.3 kPa, x1 = 0.6 | 245.4 mPa·s
298.15 K, 101.33 kPa, x1 = 0.0093 | 1.051 mPa·s
298.15 K, 101.33 kPa, x1 = 0.0188 | 1.255 mPa·s
298.15 K, 101.33 kPa, x1 = 0.0414 | 1.875 mPa·s
298.15 K, 101.33 kPa, x1 = 0.069 | 3.24 mPa·s
298.15 K, 101.33 kPa, x1 = 0.1028 | 5.486 mPa·s
298.15 K, 101.33 kPa, x1 = 0.1469 | 10.34 mPa·s
298.15 K, 101.33 kPa, x1 = 0.2054 | 21.44 mPa·s
298.15 K, 101.33 kPa, x1 = 0.2884 | 48.78 mPa·s
298.15 K, 101.33 kPa, x1 = 0.4026 | 112.5 mPa·s
298.15 K, 101.33 kPa, x1 = 0.6059 | 262.4 mPa·s
298.15 K, 101.33 kPa, x1 = 0.8012 | 420.3 mPa·s
298.15 K, 101.33 kPa, x1 = 0.9438 | 524.1 mPa·s
303.15 K, 101 kPa, x1 = 0.0501 | 1.922 mPa·s
303.15 K, 101 kPa, x1 = 0.1004 | 4.138 mPa·s
303.15 K, 101 kPa, x1 = 0.1509 | 8.25 mPa·s
303.15 K, 101 kPa, x1 = 0.2006 | 14.47 mPa·s
303.15 K, 101 kPa, x1 = 0.3008 | 36.44 mPa·s
303.15 K, 101 kPa, x1 = 0.4014 | 72.38 mPa·s
303.15 K, 101 kPa, x1 = 0.5011 | 118.4 mPa·s
303.15 K, 101 kPa, x1 = 0.5957 | 166.7 mPa·s
303.15 K, 101 kPa, x1 = 0.6968 | 224.8 mPa·s
303.15 K, 101 kPa, x1 = 0.8034 | 279.7 mPa·s
303.15 K, 101 kPa, x1 = 0.9012 | 320.5 mPa·s
303.15 K, 101.3 kPa, x1 = 0.02 | 1.106 mPa·s
303.15 K, 101.3 kPa, x1 = 0.07 | 2.74 mPa·s
303.15 K, 101.3 kPa, x1 = 0.1 | 4.42 mPa·s and 8.008 mPa·s
303.15 K, 101.3 kPa, x1 = 0.2 | 15.32 mPa·s
303.15 K, 101.3 kPa, x1 = 0.3 | 31.19 mPa·s
303.15 K, 101.3 kPa, x1 = 0.4 | 73.47 mPa·s
303.15 K, 101.3 kPa, x1 = 0.6 | 162.7 mPa·s
303.15 K, 101.33 kPa, x1 = 0.068 | 2.542 mPa·s
308.15 K, 101 kPa, x1 = 0.04 | 1.455 mPa·s
308.15 K, 101 kPa, x1 = 0.0501 | 1.679 mPa·s
308.15 K, 101 kPa, x1 = 0.054 | 1.795 mPa·s
308.15 K, 101 kPa, x1 = 0.1004 | 3.502 mPa·s
308.15 K, 101 kPa, x1 = 0.1509 | 6.653 mPa·s
308.15 K, 101 kPa, x1 = 0.2006 | 11.56 mPa·s
308.15 K, 101 kPa, x1 = 0.3008 | 27.8 mPa·s
308.15 K, 101 kPa, x1 = 0.4014 | 53.45 mPa·s
308.15 K, 101 kPa, x1 = 0.5011 | 85.56 mPa·s
308.15 K, 101 kPa, x1 = 0.5957 | 119 mPa·s
308.15 K, 101 kPa, x1 = 0.6968 | 158.6 mPa·s
308.15 K, 101 kPa, x1 = 0.8034 | 197.1 mPa·s
313.15 K, 101 kPa, x1 = 0.054 | 1.585 mPa·s
313.15 K, 101.3 kPa, x1 = 0.02 | 0.896 mPa·s
313.15 K, 101.3 kPa, x1 = 0.2 | 10.02 mPa·s
313.15 K, 101.3 kPa, x1 = 0.3 | 17.89 mPa·s
313.15 K, 101.3 kPa, x1 = 0.4 | 41.02 mPa·s
313.15 K, 101.3 kPa, x1 = 0.6 | 88.54 mPa·s
313.15 K, 101.33 kPa, x1 = 0.0093 | 0.755 mPa·s
313.15 K, 101.33 kPa, x1 = 0.0188 | 0.878 mPa·s
313.15 K, 101.33 kPa, x1 = 0.019 | 0.898 mPa·s
313.15 K, 101.33 kPa, x1 = 0.041 | 1.28 mPa·s
313.15 K, 101.33 kPa, x1 = 0.0414 | 1.25 mPa·s
313.15 K, 101.33 kPa, x1 = 0.068 | 1.93 mPa·s
313.15 K, 101.33 kPa, x1 = 0.069 | 1.884 mPa·s
313.15 K, 101.33 kPa, x1 = 0.1469 | 5.522 mPa·s
313.15 K, 101.33 kPa, x1 = 0.2054 | 10.42 mPa·s
313.15 K, 101.33 kPa, x1 = 0.2884 | 21.56 mPa·s
313.15 K, 101.33 kPa, x1 = 0.4026 | 44.04 mPa·s
313.15 K, 101.33 kPa, x1 = 0.6059 | 95.06 mPa·s
313.15 K, 101.33 kPa, x1 = 0.8012 | 143.9 mPa·s
313.15 K, 101.33 kPa, x1 = 0.9438 | 175.3 mPa·s
323.15 K, 101 kPa, x1 = 0.041 | 1.08 mPa·s
323.15 K, 101 kPa, x1 = 0.15 | 4.27 mPa·s
323.15 K, 101 kPa, x1 = 0.34 | 20.7 mPa·s
323.15 K, 101.3 kPa, x1 = 0.02 | 0.747 mPa·s
323.15 K, 101.3 kPa, x1 = 0.04 | 1.063 mPa·s
323.15 K, 101.3 kPa, x1 = 0.07 | 1.604 mPa·s
323.15 K, 101.3 kPa, x1 = 0.2 | 6.501 mPa·s
323.15 K, 101.3 kPa, x1 = 0.3 | 12.21 mPa·s
323.15 K, 101.3 kPa, x1 = 0.4 | 24.08 mPa·s
323.15 K, 101.3 kPa, x1 = 0.6 | 52.49 mPa·s
323.15 K, 101.33 kPa, x1 = 0.068 | 1.469 mPa·s

— the CheMixHub viscosity set
